Results published in US6492330B1, “Antiangiogenic drugs” (National Institute of Immunology, priority 1996, dated 2002).
Positions of bridges follow the written chain, without caps; N, C: chain ends. Non-standard residues stand in square brackets, D forms with d. No end group written: not given here. Deg = CCC(N)(CC)C(=O)O; Aib = CC(C)(N)C(=O)O

Experiments:
Type in all cases: cell-based
[1] = test system: endothelial cells ECV.304; experiment: Migration assay across 8 μm polycarbonate filter transwell inserts; details: 24 hours (Table 4)
Procedure: Polycarbonate filter transwell inserts (24 well size) with 8 μm pores (Nunc, Denmark) were used for the migration assay. ECV304 (10^4 cells/200 ul DMEM containing 0.1% BSA) was added to the upper chamber. The lower chamber contained 600 ul of DMEM with 0.1% BSA. Individual peptides of the composition MuJ-7 at six different concentrations each of N/100, N/10, N, 10N, 100N and 1000N were added directly to the upper well and the plate incubated at 37° C. for 24 hours. The cells migrated to the lower chamber were viewed randomly at five different phase-contrast microscopic fields and the total number of cells counted using Video Pro 32 Image Analysis system. Percent inhibition in migration was determined with reference to the Control. Similarly, […] different concentrations of N/100, N/10, N, 10N, 100N and 1000N of MuJ-7 were added directly to the upper well and the plate incubated at 37° C. for 24 hours. The cells migrated to the lower chamber were counted as described above.
Polycarbonate filter trasnwell inserts (24 well size) with 8 μm pores (Nuno, Denmark) were used for the migration assay. ECV304 (10^4 cells/200 ul DMEM containing 0.1% BSA) was added to the upper chamber. The lower chamber contained 600 ul of DMEM with 0.1% BSA. […] The sequence of each of the peptides added are described above. The cells migrated to the lower chamber were viewed randomly at five different phase-contrast microscopic fields and the total number of cells counted using Video Pro 32 Image Analysis system. Percent inhibition in migration was determined with reference to Control. […]

ECV.304 cells = experiment: MTT assay, inhibition of proliferation of endothelial cells ECV.304; details: 72 hours (Table 2)
Procedure: 150 μl of medium was added to the wells of a 96-well tissue culture plate (Nunc, Denmark) followed by 30 μl of cell suspension. The plate was left in incubator (37° C., 5% CO2) overnight. Each of the seven peptides of the combination MuJ-7 were added at three molar concentrations of 10^−7M, 10^−8M and 10^−9M. 20 μl of MuJ-7 at three concentrations of N/10, N and 10N was added to marked wells of the 96-well plate. The value of N for each of the individual peptides was 10^−8M for VIP2, BOM1, SP1, VIP3, and SOM2 and 10^−7M for VIP1, and 10^−9M for SOM1. Each concentration was plated in triplicate. 20 μl of medium alone was added to control wells while wells without cells served as blanks. A total volume of 200 μl was ensured in each well and the plate was left in an incubator (37° C., 5% CO2). After 72 hours of incubation an MTT assay was performed and percentage inhibition in proliferation of treated cells was calculated with respect to control cells.
150 μl of medium was added to the wells of a 96-well tissue culture plate (Nunc, Denmark) followed by 30 μl of cell suspension. The plate was left in incubator (37° C., 5% CO2) overnight. Novel peptides shown below were incubated with cells at concentration range of 10^−7 to 10^−9 M (except DT71 at concentration range 10^−8 to 10^−10 M). Each concentration was plated in triplicates. 20 μl of medium alone was added to control wells while wells without cells served as blanks. A total volume of 200 μl was ensured in each well and plate was left in incubator (37° C., 5% CO2). After 72 hours of incubation an MTT assay was performed and percentage inhibition in proliferation of treated cells was calculated with respect to control cells.

ECV304 = experiment: Tube-like-structure (TLS) formation on Matrigel; details: 24 hours
Procedure: Matrigel (350 ul) was placed into each well of a 24-well culture plate at 4° C. and was allowed to polymerize by incubation at 37° C. for 30 min. ECV304 (1.5×10^4) were seeded on the Matrigel in 500 ul DMEM supplemented with 10% FBS. MuJ-7 at four different concentrations of 0.25×, 0.5×, ×, & 5.0× were added and. the plate incubated at 37° C. for 24 hour. “×” denotes normal concentration of MuJ-7 where molar concentration of individual peptides was 10^−8 M for VIP2, BOM1, SP1, VIP3 and SOM2 and 10^−7 M for VIP1 and 10^−9 M for SOM1. […] Percent inhibition in tube area was determined with reference to untreated cells.
Matrigel (350 ul) was placed into each well of a 24-well culture plate at 4° C. and was allowed to polymerize by incubation at 37° C. for 30 min. ECV304 (1.5×10^4) were seeded on the Matrigel in 500 ul DMEM supplemented with 10% FBS. […] Percent inhibition in tube length was determined with reference to untreated cells.
Matrigel (350 ul) was placed into each well of a 24-well culture plate at 4° C. and was allowed to polymerize by incubation at 37° C. for 30 min. ECV304 (1.5×10^4) were seeded on the Matrigel in 500 ul DMEM supplemented with 10% FBS. Individual peptides of the composition MuJ-7 at three different concentrations each of N/10, N, and 10N were added and the plate incubated at 37° C. for 24 hours. […] Percent inhibition in tube length was determined with reference to Control. Similarly, three different concentrations of N/10, N, and 10N of MuJ-7 were added to the well and the plate incubated at 37° C. for 24 hours. Percent inhibition in tube length was determined with reference to Control as described previously (Table 10).

[2] = analog at optimum concentration −8M

Row | Substance | PERCENT INHIBITION MIGRATION [1, 2] [%] | PERCENT INHIBITION OF PROLIFERATION (ECV.304 cells; ECV304, 10^−7M) [%] | PERCENT INHIBITION OF PROLIFERATION (ECV.304 cells; ECV304, 10^−8M) [%] | PERCENT INHIBITION OF PROLIFERATION (ECV.304 cells; ECV304, 10^−9M) [%] | INHIBITION OF TUBE LENGTH (ECV304; peptide −8M) [%] | PERCENT INHIBITION MIGRATION ([1]; analog at optimum concentration −9M) [%] | PERCENT INHIBITION OF PROLIFERATION (ECV.304 cells; ECV304, 10^−10M) [%] | INHIBITION OF TUBE LENGTH (ECV304; peptide −9M) [%]
1 | Aib-Met-Tyr-Pro-Thr-Tyr-Aib-Lys-OH ([Aib]MYPTY[Aib]K-OH; N-terminus assumed; SMILES CSCC[C@H](NC(=O)C(C)(C)N)C(=O)N[C@@H](Cc1ccc(O)cc1)C(=O)N1CCC[C@H]1C(=O)N[C@H](C(=O)N[C@@H](Cc1ccc(O)cc1)C(=O)NC(C)(C)C(=O)N[C@@H](CCCCN)C(=O)O)[C@@H](C)O) [DT-11] | 82.5 | 16.7 | 18.7 | 19.9 | 3.6 |  |  | 
2 | [dF]QWAV[Aib]HL-NH2 [DT-24] | 0 | 6.4 | 9.8 | 10.7 | 16.2 |  |  | 
3 | Ala-Aib-Cys-Lys-Asn-Phe-Phe-D-Trp-Lys-Thr-Phe-Thr-Ser-Cys (A[Aib]CKNFF[dW]KTFTSC; ends and bridges not checked) [DT-62B] | 8.5 | 14.0 | 3.8 | 12.8 | 0 |  |  | 
4 | Leu-Met-Tyr-Pro-Thr-Tyr-D-Leu-Lys-OH (LMYPTY[dL]K-OH; N-terminus assumed; SMILES CSCC[C@H](NC(=O)[C@@H](N)CC(C)C)C(=O)N[C@@H](Cc1ccc(O)cc1)C(=O)N1CCC[C@H]1C(=O)N[C@H](C(=O)N[C@@H](Cc1ccc(O)cc1)C(=O)N[C@H](CC(C)C)C(=O)N[C@@H](CCCCN)C(=O)O)[C@@H](C)O) [DT-14] | 77.3 | 17.0 | 6.0 | 20.5 | 24.3 |  |  | 
5 | D-Phe-Cys-Tyr-D-Trp-Lys-Thr-Aib-Thr-NH2 (XCYXKTXT; D-amino acids, Aib, C-terminal amide) [DT-71] |  |  | 14.6 | 12.1 |  | 68.2 | 9.4 | 9.9
6 | Aib-Met-Gln-Trp-Phe-Aib-NH2 ([Aib]MQWF[Aib]-NH2; N-terminus assumed; SMILES CSCC[C@H](NC(=O)C(C)(C)N)C(=O)N[C@@H](CCC(N)=O)C(=O)N[C@@H](Cc1c[nH]c2ccccc12)C(=O)N[C@@H](Cc1ccccc1)C(=O)NC(C)(C)C(N)=O) [DT-31] | 0 | 1.3 | 14.1 | 6.1 | 17.1 |  |  | 
7 | [dF]QWAV[Aib]HI-NH2 [DT-27] | 0 | 14.3 | 11.9 | 6.7 | 29.7 |  |  | 
8 | Leu-Met-Tyr-Pro-Thr-D-Tyr-Leu-Lys-OH (LMYPT[dY]LK-OH; N-terminus assumed; SMILES CSCC[C@H](NC(=O)[C@@H](N)CC(C)C)C(=O)N[C@@H](Cc1ccc(O)cc1)C(=O)N1CCC[C@H]1C(=O)N[C@H](C(=O)N[C@H](Cc1ccc(O)cc1)C(=O)N[C@@H](CC(C)C)C(=O)N[C@@H](CCCCN)C(=O)O)[C@@H](C)O) [DT-13] | 89.7 | 22.6 | 20.3 | 18.4 | 16.2 |  |  | 
9 | [dR]PKP[Aib]Q[dW]F[dW][Aib]L-NH2 [DT-34] | 53.6 | 12.1 | 15.6 | 14.3 | 0 |  |  | 
10 | LM[dY]PTY[dL]K-OH [DT-15] | 73.2 | 20.4 | 13.2 | 20.0 | 0 |  |  | 
11 | D-Phe-Gln-Trp-Aib-Val-Gly-His-Ile-NH2 ([dF]QW[Aib]VGHI-NH2; N-terminus assumed; SMILES CC[C@H](C)[C@H](NC(=O)[C@H](Cc1c[nH]cn1)NC(=O)CNC(=O)[C@@H](NC(=O)C(C)(C)NC(=O)[C@H](Cc1c[nH]c2ccccc12)NC(=O)[C@H](CCC(N)=O)NC(=O)[C@H](N)Cc1ccccc1)C(C)C)C(N)=O) [DT-26] | 0 | 0 | 0 | 0 | 0 |  |  | 
12 | [dL]MQWF[Aib]-NH2 [DT-33] | 41.4 | 8.7 | 15.8 | 13.9 | 13.5 |  |  | 
13 | Aib-Met-Tyr-Pro-Thr-Tyr-Deg-Lys-OH ([Aib]MYPTY[Deg]K-OH; N-terminus assumed; SMILES CCC(CC)(NC(=O)[C@H](Cc1ccc(O)cc1)NC(=O)[C@@H](NC(=O)[C@@H]1CCCN1C(=O)[C@H](Cc1ccc(O)cc1)NC(=O)[C@H](CCSC)NC(=O)C(C)(C)N)[C@@H](C)O)C(=O)N[C@@H](CCCCN)C(=O)O) [DT-18] | 73.2 | 23.3 | 10.9 | 14.4 | 0 |  |  | 
14 | Ala-Aib-Cys-Lys-Asn-Phe-Phe-D-Trp-Lys-Thr-Phe-Thr-Ser-Cys (3-14 Disulphide bond) (A[Aib]CKNFF[dW]KTFTSC; disulfide 3-14) [DT-62A] | 62.2 | 11.7 | 20.1 | 25.7 | 44.1 |  |  | 
15 | D-Leu-Met-Tyr-Pro-Thr-Tyr-D-Leu-Lys-OH ([dL]MYPTY[dL]K-OH; N-terminus assumed; SMILES CSCC[C@H](NC(=O)[C@H](N)CC(C)C)C(=O)N[C@@H](Cc1ccc(O)cc1)C(=O)N1CCC[C@H]1C(=O)N[C@H](C(=O)N[C@@H](Cc1ccc(O)cc1)C(=O)N[C@H](CC(C)C)C(=O)N[C@@H](CCCCN)C(=O)O)[C@@H](C)O) [DT-16] | 90.07 | 24.0 | 24.7 | 37.9 | 18.9 |  |  | 
